Test results as given in ChEMBL document CHEMBL1800060, “Enhancement of transcriptional activity of mutant p53 tumor suppressor protein through stabilization of tetramer formation by calix[6]arene derivatives” (Bioorg Med Chem Lett, 2010).
The source made the active and inactive calls. The rule behind the calls is not given here.

Assays:
[1] = tested on: Cellular tumor antigen p53 (Homo sapiens), P04637 [R337H]; assay: Thermal stabilization of p53 tetramerization domain-Arg337His mutant peptide assessed as change in transition temperature at 10 uM by CD spectroscopy
[2] = tested on: Cellular tumor antigen p53 (Homo sapiens), P04637 [R337H]; assay: Enhancement of transcriptional activity of EGFP tagged p53 tetramerization domain-Arg337His mutant peptide in NCI-H1299 cells transfected with p53RE-mCherry(NLS) reporter plasmid assessed as increase in fluorescence signal at 20 uM after 11 hrs by fluorescence assay; type: cell-based
[3] = tested on: Cellular tumor antigen p53 (Homo sapiens), P04637 [R337H]; assay: Thermal stabilization of p53 tetramerization domain-Arg337His mutant peptide assessed as change in transition temperature at 40 uM by CD spectroscopy
[4] = tested on: Cellular tumor antigen p53 (Homo sapiens), P04637 [R337H]; assay: Enhancement of transcriptional activity of EGFP tagged p53 tetramerization domain-Arg337His mutant peptide in NCI-H1299 cells transfected with p53RE-mCherry(NLS) reporter plasmid assessed as increase in fluorescence signal at 20 uM after 11 hrs by fluorescence assay relative to untreated control; type: cell-based
[5] = tested on: Cellular tumor antigen p53 (Homo sapiens), P04637 [R273H]; assay: Enhancement of transcriptional activity of p53 DNA binding domain Arg273His mutant in NCI-H1299 cells transfected p53RE-mCherry(NLS) reporter plasmid assessed as increase in fluorescence signal at 20 uM after 11 hrs by fluorescence assay; type: cell-based
[6] = target: Cellular tumor antigen p53 (Homo sapiens) (UniProt P04637); assay: Enhancement of transcriptional activity of wild type p53 in NCI-H1299 cells transfectedp53RE-mCherry(NLS) reporter plasmid assessed as increase in fluorescence signal at 20 uM after 11 hrs by fluorescence assay; type: cell-based

Row | deltaT [1] [°C] | Activity [2] | deltaT [3] [°C] | Activity [4] [%] | Activity [5] | Activity [6] | Compound
1 | 0 |  |  |  |  |  | COc1c2cc(Cn3cccn3)cc1Cc1cc(Cn3cccn3)cc(c1OC)Cc1cc(Cn3cccn3)cc(c1OC)Cc1cc(Cn3cccn3)cc(c1OC)Cc1cc(Cn3cccn3)cc(c1OC)Cc1cc(Cn3cccn3)cc(c1OC)C2
2 | 0.3 | inactive | -0.3 |  |  |  | N=C(N)NCc1cc2c3c(c1)Cc1cc(CNC(=N)N)cc4c1OCCOCCOc1c(cc(CNC(=N)N)cc1Cc1cc(CNC(=N)N)cc(c1OCCOCCO3)C2)C4
3 | 2.3 | Active | 4.1 | 130 | inactive | Active | COc1c2cc(Cn3ccnc3)cc1Cc1cc(Cn3ccnc3)cc(c1OC)Cc1cc(Cn3ccnc3)cc(c1OC)Cc1cc(Cn3ccnc3)cc(c1OC)Cc1cc(Cn3ccnc3)cc(c1OC)Cc1cc(Cn3ccnc3)cc(c1OC)C2
